Measured values from the supplement of paper PMC10307832.

Assays:
Test in all cases: relative viability (nuclei count vs DMSO), 5 days (fraction); higher = more cells survive
COR-L23 = test system: COR-L23
Method in brief: (§1)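 Dosing by pin tool came one day after lung cancer cell lines were seeded in 1536-well plates, using either one drug or a fixed anchor-drug dose plus five library-drug doses (not always all listed) in √10 steps. After 5 days, nuclei were counted on 4× images. Relative viability is treated-well nuclei count divided by vehicle-well nuclei count, and values are medians of duplicate plates.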

NCI-H1944 = test system: NCI-H1944
Method in brief: as §1

EMC-BAC-2 = test system: EMC-BAC-2
Method in brief: as §1

HCC-366 = test system: HCC-366
Method in brief: as §1

NCI-H2228 = test system: NCI-H2228
Method in brief: as §1

A-427 = test system: A-427
Method in brief: as §1

HCC-15 = test system: HCC-15
Method in brief: as §1

NCI-H1734 = test system: NCI-H1734
Method in brief: as §1

NCI-H2023 = test system: NCI-H2023
Method in brief: as §1

UMC-11 = test system: UMC-11
Method in brief: as §1

HCC-78 = test system: HCC-78
Method in brief: as §1

NCI-H1993 = test system: NCI-H1993
Method in brief: as §1

NCI-H1793 = test system: NCI-H1793
Method in brief: as §1

NCI-H1650 = test system: NCI-H1650
Method in brief: as §1

NCI-H838 = test system: NCI-H838
Method in brief: as §1

NCI-H2405 = test system: NCI-H2405
Method in brief: as §1

NCI-H23 = test system: NCI-H23
Method in brief: as §1

HARA = test system: HARA
Method in brief: as §1

LK-2 = test system: LK-2
Method in brief: as §1

ABC-1 = test system: ABC-1
Method in brief: as §1

LC-2-ad = test system: LC-2-ad
Method in brief: as §1

SK-LU-1 = test system: SK-LU-1
Method in brief: as §1

NCI-H2009 = test system: NCI-H2009
Method in brief: as §1

Compound `Clc1ccc(Nc2nnc(Cc3ccncc3)c3ccccc23)cc1` [Vatalanib] + CS(=O)(=O)CCNCc1ccc(-c2ccc3ncnc(Nc4ccc(OCc5cccc(F)c5)c(Cl)c4)c3c2)o1 [Lapatinib] (partner 2 µM) has a relative viability (COR-L23; first compound 0.04 µM) of 0.848, a relative viability (COR-L23; first compound 0.1265 µM) of 0.753 and a relative viability (COR-L23; first compound 0.4 µM) of 1.01. It also gave a relative viability (COR-L23; first compound 1.265 µM) of 1.07, a relative viability (COR-L23; first compound 4 µM) of 0.868 and a relative viability (NCI-H1944; first compound 0.04 µM) of 0.904. It also gave a relative viability (NCI-H1944; first compound 0.1265 µM) of 0.635, a relative viability (NCI-H1944; first compound 0.4 µM) of 0.909 and a relative viability (NCI-H1944; first compound 1.265 µM) of 0.804. The relative viability (NCI-H1944; first compound 4 µM) was 0.784, the relative viability (EMC-BAC-2; first compound 0.04 µM) was 0.905 and the relative viability (EMC-BAC-2; first compound 0.1265 µM) was 0.884. It also gave a relative viability (EMC-BAC-2; first compound 0.4 µM) of 0.919, a relative viability (EMC-BAC-2; first compound 1.265 µM) of 0.832 and a relative viability (EMC-BAC-2; first compound 4 µM) of 0.885. For the same compound, the relative viability (HCC-366; first compound 0.04 µM) was 1.02, the relative viability (HCC-366; first compound 0.1265 µM) was 0.93 and the relative viability (HCC-366; first compound 0.4 µM) was 1.06. The relative viability (HCC-366; first compound 1.265 µM) was 0.937, the relative viability (HCC-366; first compound 4 µM) was 1.03 and the relative viability (NCI-H2228; first compound 0.04 µM) was 1.32. It also gave a relative viability (NCI-H2228; first compound 0.1265 µM) of 1.14, a relative viability (NCI-H2228; first compound 0.4 µM) of 1.06 and a relative viability (NCI-H2228; first compound 1.265 µM) of 0.981. The relative viability (NCI-H2228; first compound 4 µM) was 1.28, the relative viability (A-427; first compound 0.04 µM) was 1.01 and the relative viability (A-427; first compound 0.1265 µM) was 0.938. The relative viability (A-427; first compound 0.4 µM) was 0.769, the relative viability (A-427; first compound 1.265 µM) was 0.972 and the relative viability (A-427; first compound 4 µM) was 1.11. For the same compound, the relative viability (HCC-15; first compound 0.04 µM) was 0.874, the relative viability (HCC-15; first compound 0.1265 µM) was 0.699 and the relative viability (HCC-15; first compound 0.4 µM) was 0.853. It also gave a relative viability (HCC-15; first compound 1.265 µM) of 0.825, a relative viability (HCC-15; first compound 4 µM) of 0.837 and a relative viability (NCI-H1734; first compound 0.04 µM) of 0.919. The relative viability (NCI-H1734; first compound 0.1265 µM) was 1.02, the relative viability (NCI-H1734; first compound 0.4 µM) was 1.11 and the relative viability (NCI-H1734; first compound 1.265 µM) was 1.06. For the same compound, the relative viability (NCI-H1734; first compound 4 µM) was 1.09, the relative viability (NCI-H2023; first compound 0.04 µM) was 0.749 and the relative viability (NCI-H2023; first compound 0.1265 µM) was 0.725. For the same compound, the relative viability (NCI-H2023; first compound 0.4 µM) was 1.05, the relative viability (NCI-H2023; first compound 1.265 µM) was 0.681 and the relative viability (NCI-H2023; first compound 4 µM) was 0.736. For the same compound, the relative viability (UMC-11; first compound 0.04 µM) was 0.924, the relative viability (UMC-11; first compound 0.1265 µM) was 0.941 and the relative viability (UMC-11; first compound 0.4 µM) was 0.976. It also gave a relative viability (UMC-11; first compound 1.265 µM) of 0.975, a relative viability (UMC-11; first compound 4 µM) of 1.13 and a relative viability (HCC-78; first compound 0.04 µM) of 0.694. For the same compound, the relative viability (HCC-78; first compound 0.1265 µM) was 0.634, the relative viability (HCC-78; first compound 0.4 µM) was 0.937 and the relative viability (HCC-78; first compound 4 µM) was 0.478. The relative viability (NCI-H1993; first compound 0.04 µM) was 0.909, the relative viability (NCI-H1993; first compound 0.1265 µM) was 0.721 and the relative viability (NCI-H1993; first compound 0.4 µM) was 0.828. The relative viability (NCI-H1993; first compound 1.265 µM) was 0.755, the relative viability (NCI-H1993; first compound 4 µM) was 0.747 and the relative viability (NCI-H1793; first compound 0.04 µM) was 0.743. The relative viability (NCI-H1793; first compound 0.1265 µM) was 0.704, the relative viability (NCI-H1793; first compound 0.4 µM) was 1.05 and the relative viability (NCI-H1793; first compound 1.265 µM) was 0.64. The relative viability (NCI-H1793; first compound 4 µM) was 0.81, the relative viability (NCI-H1650; first compound 0.04 µM) was 0.799 and the relative viability (NCI-H1650; first compound 0.1265 µM) was 0.644. It also gave a relative viability (NCI-H1650; first compound 0.4 µM) of 0.959, a relative viability (NCI-H1650; first compound 1.265 µM) of 0.752 and a relative viability (NCI-H1650; first compound 4 µM) of 0.63. For the same compound, the relative viability (NCI-H838; first compound 0.04 µM) was 1.06, the relative viability (NCI-H838; first compound 0.1265 µM) was 0.944 and the relative viability (NCI-H838; first compound 0.4 µM) was 1.09. For the same compound, the relative viability (NCI-H838; first compound 1.265 µM) was 0.841, the relative viability (NCI-H838; first compound 4 µM) was 0.961 and the relative viability (NCI-H2405; first compound 0.04 µM) was 1.04. The relative viability (NCI-H2405; first compound 0.1265 µM) was 0.984, the relative viability (NCI-H2405; first compound 1.265 µM) was 0.923 and the relative viability (NCI-H2405; first compound 4 µM) was 1.05. For the same compound, the relative viability (NCI-H23; first compound 0.04 µM) was 0.963, the relative viability (NCI-H23; first compound 0.1265 µM) was 1.15 and the relative viability (NCI-H23; first compound 0.4 µM) was 1.3. The relative viability (NCI-H23; first compound 1.265 µM) was 0.993, the relative viability (NCI-H23; first compound 4 µM) was 1.08 and the relative viability (HARA; first compound 0.04 µM) was 0.583. It also gave a relative viability (HARA; first compound 0.1265 µM) of 0.694, a relative viability (HARA; first compound 0.4 µM) of 0.746 and a relative viability (HARA; first compound 1.265 µM) of 0.731. For the same compound, the relative viability (HARA; first compound 4 µM) was 0.948, the relative viability (LK-2; first compound 0.04 µM) was 0.88 and the relative viability (LK-2; first compound 0.1265 µM) was 0.831. It also gave a relative viability (LK-2; first compound 0.4 µM) of 0.698, a relative viability (LK-2; first compound 1.265 µM) of 1.03 and a relative viability (LK-2; first compound 4 µM) of 0.93. The relative viability (ABC-1; first compound 0.04 µM) was 1.33, the relative viability (ABC-1; first compound 0.1265 µM) was 0.931 and the relative viability (ABC-1; first compound 0.4 µM) was 1.16. It also gave a relative viability (ABC-1; first compound 1.265 µM) of 1.23, a relative viability (ABC-1; first compound 4 µM) of 1.05 and a relative viability (LC-2-ad; first compound 0.04 µM) of 0.977. It also gave a relative viability (LC-2-ad; first compound 0.1265 µM) of 0.865, a relative viability (LC-2-ad; first compound 0.4 µM) of 0.952 and a relative viability (LC-2-ad; first compound 1.265 µM) of 0.936. The relative viability (LC-2-ad; first compound 4 µM) was 0.901, the relative viability (SK-LU-1; first compound 0.04 µM) was 0.963 and the relative viability (SK-LU-1; first compound 0.1265 µM) was 0.875. For the same compound, the relative viability (SK-LU-1; first compound 0.4 µM) was 1.21, the relative viability (SK-LU-1; first compound 1.265 µM) was 0.885 and the relative viability (SK-LU-1; first compound 4 µM) was 0.848. The relative viability (NCI-H2009; first compound 0.04 µM) was 1.03, the relative viability (NCI-H2009; first compound 0.1265 µM) was 0.868 and the relative viability (NCI-H2009; first compound 0.4 µM) was 1.1. It also gave a relative viability (NCI-H2009; first compound 1.265 µM) of 0.894 and a relative viability (NCI-H2009; first compound 4 µM) of 0.919.
